Tested on: infected potato stem explants
Test: Kanamycin selection of potato stem explants
Type: cell-based, potato (Russet Burbank)
Details: Kanamycin at 300 mg/l
Experimental: Potato--Shoot tips of virus-free Russet Burbank are subcultured on media containing MS major and minor salts, 0.17 g/l sodium dihygrogen phosphate, 0.4 mg/l thiamine hydrochloride, 0.1 g/l inositol, 3% sucrose, 1.5 g/l Gelrite™ (Kelco, Co ) at pH 5.6. Cultures are grown at 24C in a 16 hour photoperiod. Shoots are used approximately 3-4 weeks after subculturing. Stem internodes are cut into approximately 8 mm lengths and split lengthwise, then the cut surface is smeared with Agrobacterium carrying binary vector pMON542 and helper plasmid pTiT37-SE which had been streaked on an LB agar plate and grown for a few days. Stem sections are placed cut side down on the surface of the medium containing MS salts, MS organics, 3% sucrose, 2.25 mg/l BA, […] NAA, 10 mg/l GA, 1.5 g/l Gelrite at pH 5.6. After 4 days, the stem explants are transferred to the same medium but with carbenicillin at 500 mg/l and kanamycin as the selective agent at 0 or 300 mg/l. Two weeks after inoculation, the explants are moved onto medium of the same composition but without NAA.

NC[C@H]1O[C@H](O[C@H]2[C@H](O)[C@@H](O[C@H]3O[C@H](CO)[C@@H](O)[C@H](N)[C@H]3O)[C@H](N)C[C@@H]2N)[C@H](O)[C@@H](O)[C@@H]1O [Kanamycin, kanamycin]
swelling and callusing of explants: sufficient to prevent swelling and callusing of the infected explants without killing the tissue
